Reference: patent US11684616B2, “Azalactam compounds as HPK1 inhibitors” (PFIZER INC., priority 2020, dated 2023)

Columns and labels:
[1] = target: Human recombinant full-length GST-tagged PRKD2 (PKD2) (Homo sapiens (Human), UniProt Q9BZL6); test: Biochemical selectivity kinase assay (Z'-LYTE FRET), PRKD2; settings: for IC50: 25 μM ATP (~Km); for PRKD2 IC50/HPK1 Ki: ratio of the PRKD2 IC50 to the HPK1 Ki
Source text: (§1) Biochemical Selectivity Kinase Assay.
(§2) The dose response curve was curve fit to model number 205 (sigmoidal dose-response model). A ratio of the PRKD2 IC50 to the HPK1 Ki and a ratio of the RSK3 IC50 to the HPK1 Ki, is provided in the respective columns adjacent to the columns for PRKD2 IC50 and RSK3 IC50.

[2] = target: Human recombinant full-length GST-tagged RPS6KA2 (RSK3) (Homo sapiens (Human), UniProt Q15349); test: Biochemical selectivity kinase assay (Z'-LYTE FRET), RSK3; settings: for IC50: 10 μM ATP (~Km); for RSK3 IC50/HPK1 Ki: ratio of the RSK3 IC50 to the HPK1 Ki
Source text: as §1, §2

[3] = system: Phospho-SLP-76 (Ser376) in Jurkat cells; test: Phospho-SLP-76 (Ser376) HTRF assay in anti-CD3 stimulated Jurkat cells; type: cell-based; settings: Homo sapiens, Jurkat, 30 min pre-treatment, anti-CD3 stimulation 15 min, read-out: pSLP76 IC50
Method in brief: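 Jurkat cells pre-treated 30 min with compound (11-point 3-fold series, final 10 μM to 0.1 nM, 0.1% DMSO), then stimulated 15 min at 37° C with 200 μg/mL F(ab)2-complexed anti-CD3 (UCTH1). Lysate phospho-SLP-76 read by HTRF sandwich after overnight RT incubation; IC50 from four-parameter fit.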

[4] = target: human full-length autophosphorylated recombinant HPK1 (Homo sapiens (Human), UniProt Q92918); test: HPK1 biochemical enzyme assay (chelation-enhanced fluorescence, CHEF); settings: 0.5 nM HPK1, 45 μM ATP, Morrison fit
Method in brief: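 Autophosphorylated full-length human HPK1 from Sf21 cells, His-tag removed by TEV, residual N-terminal Gly-Ser. Activity measured with a C-Sox fluorescent peptide substrate (CHEF); initial velocities followed at λex 360/λem 500 nm, 30 °C for 15 min.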

human full-length autophosphorylated recombinant HPK1, sequence (Q92918 other isoform, or with tags, fused parts or gaps): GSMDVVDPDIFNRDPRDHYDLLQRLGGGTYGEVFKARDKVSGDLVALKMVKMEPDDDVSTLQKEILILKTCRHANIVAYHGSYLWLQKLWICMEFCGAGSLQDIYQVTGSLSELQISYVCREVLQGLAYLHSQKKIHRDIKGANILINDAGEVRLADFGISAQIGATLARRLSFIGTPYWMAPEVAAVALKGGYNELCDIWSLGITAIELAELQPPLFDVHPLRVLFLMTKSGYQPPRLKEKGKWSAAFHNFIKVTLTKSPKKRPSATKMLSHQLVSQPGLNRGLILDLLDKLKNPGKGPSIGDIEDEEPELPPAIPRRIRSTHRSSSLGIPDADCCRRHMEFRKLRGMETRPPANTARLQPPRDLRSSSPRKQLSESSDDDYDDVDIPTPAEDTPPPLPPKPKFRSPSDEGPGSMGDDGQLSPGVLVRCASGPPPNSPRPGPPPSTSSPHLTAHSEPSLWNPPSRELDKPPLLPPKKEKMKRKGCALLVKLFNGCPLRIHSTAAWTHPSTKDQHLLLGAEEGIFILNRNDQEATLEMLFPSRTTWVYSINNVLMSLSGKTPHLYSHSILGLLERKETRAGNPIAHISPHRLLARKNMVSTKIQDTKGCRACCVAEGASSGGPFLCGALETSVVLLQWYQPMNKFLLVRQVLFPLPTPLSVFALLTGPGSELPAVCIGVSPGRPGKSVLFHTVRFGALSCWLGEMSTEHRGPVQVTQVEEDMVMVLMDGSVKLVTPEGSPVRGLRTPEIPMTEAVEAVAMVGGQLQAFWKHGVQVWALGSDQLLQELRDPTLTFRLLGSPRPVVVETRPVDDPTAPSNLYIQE
Human recombinant full-length GST-tagged PRKD2 (PKD2), sequence (Q9BZL6 whole entry): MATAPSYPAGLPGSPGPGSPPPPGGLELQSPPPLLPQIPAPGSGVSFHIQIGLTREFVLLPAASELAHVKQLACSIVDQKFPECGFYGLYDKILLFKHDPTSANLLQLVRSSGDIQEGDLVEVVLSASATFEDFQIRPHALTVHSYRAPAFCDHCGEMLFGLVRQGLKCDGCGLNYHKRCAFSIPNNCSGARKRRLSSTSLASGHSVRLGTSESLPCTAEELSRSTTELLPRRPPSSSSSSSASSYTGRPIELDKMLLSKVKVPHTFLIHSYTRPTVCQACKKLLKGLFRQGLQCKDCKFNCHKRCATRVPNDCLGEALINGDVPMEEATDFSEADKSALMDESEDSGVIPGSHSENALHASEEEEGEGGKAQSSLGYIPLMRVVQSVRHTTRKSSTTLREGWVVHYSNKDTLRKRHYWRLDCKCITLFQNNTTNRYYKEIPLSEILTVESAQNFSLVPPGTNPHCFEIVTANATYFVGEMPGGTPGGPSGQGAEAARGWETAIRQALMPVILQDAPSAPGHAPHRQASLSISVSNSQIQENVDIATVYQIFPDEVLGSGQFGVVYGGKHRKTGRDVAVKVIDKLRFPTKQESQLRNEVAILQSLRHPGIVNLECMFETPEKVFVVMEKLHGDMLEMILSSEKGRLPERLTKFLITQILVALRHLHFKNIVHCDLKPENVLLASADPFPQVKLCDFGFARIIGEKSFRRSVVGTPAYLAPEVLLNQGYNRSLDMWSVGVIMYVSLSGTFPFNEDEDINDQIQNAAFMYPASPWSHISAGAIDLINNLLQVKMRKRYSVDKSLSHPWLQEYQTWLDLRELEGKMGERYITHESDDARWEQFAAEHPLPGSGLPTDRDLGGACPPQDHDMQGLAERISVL
Human recombinant full-length GST-tagged RPS6KA2 (RSK3), sequence (Q15349 whole entry): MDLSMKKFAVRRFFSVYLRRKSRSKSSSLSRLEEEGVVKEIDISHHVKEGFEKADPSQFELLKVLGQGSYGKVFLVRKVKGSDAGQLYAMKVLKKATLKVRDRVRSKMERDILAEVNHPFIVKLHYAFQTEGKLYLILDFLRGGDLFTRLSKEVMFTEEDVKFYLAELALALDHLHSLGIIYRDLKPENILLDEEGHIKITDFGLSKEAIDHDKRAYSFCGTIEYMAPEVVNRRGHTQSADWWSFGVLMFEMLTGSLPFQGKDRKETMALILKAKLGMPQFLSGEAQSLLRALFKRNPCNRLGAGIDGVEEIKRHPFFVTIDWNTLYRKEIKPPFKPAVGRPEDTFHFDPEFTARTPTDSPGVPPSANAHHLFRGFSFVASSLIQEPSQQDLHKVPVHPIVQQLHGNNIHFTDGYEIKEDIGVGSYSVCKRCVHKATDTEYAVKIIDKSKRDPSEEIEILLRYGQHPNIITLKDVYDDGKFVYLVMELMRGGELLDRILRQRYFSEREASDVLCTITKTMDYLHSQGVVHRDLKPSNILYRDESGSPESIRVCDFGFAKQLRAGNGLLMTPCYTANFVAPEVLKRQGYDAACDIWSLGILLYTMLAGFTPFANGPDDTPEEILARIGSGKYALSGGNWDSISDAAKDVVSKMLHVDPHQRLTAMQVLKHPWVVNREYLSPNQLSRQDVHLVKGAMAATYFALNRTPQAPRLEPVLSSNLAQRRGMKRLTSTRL

SMILES	IC50 [1] [nM]	IC50 [2] [nM]	PRKD2 IC50/HPK1 Ki [1]	RSK3 IC50/HPK1 Ki [2]	IC50 [3] [nM]	Ki [4] [nM]
CC[C@@H](N)c1nc(N2CCC[C@H]2C)cc2c1CN(c1cccc(-c3nnc4n3[C@@H](C)CC4)n1)C2=O [Example 1, 4-[(1R)-1-aminopropyl]-2-{6-[(5S)-5-methyl-6,7-dihydro-5H-pyrrolo[2,1-c][1,2,4]triazol-3-yl]pyridin-2-yl}-6-[(2R)-2-methylpyrrolidin-1-yl]-2,3-dihydro-1H-pyrrolo[3,4-c]pyridin-1-one]	155	47				
CCn1cnnc1-c1cccc(N2Cc3c(cc(N(C)C)nc3C(C)(C)N)C2=O)n1 [Example 132, 4-(2-aminopropan-2-yl)-6-(dimethyl-amino)-2-[6-(4-ethyl-4H-1,2,4-triazol-3-yl)pyridin-2-yl]-2,3-dihydro-1H-pyrrolo[3,4-c]pyridin-1-one]					148	0.38
CCCn1c(C)nnc1-c1cccc(N2Cc3c(cc(N4CCC[C@H]4C)nc3C(C)(C)N)C2=O)n1 [Example 133, 4-(2-aminopropan-2-yl)-2-[6-(5-methyl-4-propyl-4H-1,2,4-triazol-3-yl)pyridin-2-yl]-6-[(2R)-2-methylpyrroli-din-1-yl]-2,3-dihydro-1H-pyrrolo[3,4-c]pyridin-1-one]					95	0.12
CCn1c(C)nnc1-c1cccc(N2Cc3c(cc(N4CCC[C@H]4C)nc3C(C)(C)N)C2=O)n1 [Example 134, 4-(2-aminopropan-2-yl)-2-[6-(4-ethyl-5-methyl-4H-1,2,4-triazol-3-yl)pyridin-2-yl]-6-[(2R)-2-methylpyrroli-din-1-yl]-2,3-dihydro-1H-pyrrolo[3,4-c]pyridin-1-one]					106	0.22
CCCn1c(C)nnc1-c1cccc(N2Cc3c(cc(N(C)C(C)C)nc3C(C)(C)N)C2=O)n1 [Example 139, 4-(2-amino-propan-2-yl)-6-[methyl (propan-2-yl)amino]-2-[6-(5-methyl-4-propyl-4H-1,2,4-triazol-3-yl)pyridin-2-yl]-2,3-dihydro-1H-pyrrolo[3,4-c]pyridin-1-one]					104	0.27
CC[C@@H]1CCc2nnc(-c3cccc(N4Cc5c(cc(N6CCC[C@H]6C)nc5CNC)C4=O)n3)n21 [Example 203, 2-{6-[(5R)-5-ethyl-6,7-dihydro-5H-pyrrolo[2,1-c] [1,2,4]triazol-3-yl]pyridin-2-yl}-4-[(methyl-amino)methyl]-6-[(2R)-2-methylpyrroli-din-1-yl]-2,3-dihydro-1H-pyrrolo[3,4-c] pyridin-1-one]					182	1.04
CNCc1nc(N(C)C(C)C)cc2c1CN(c1cccc(-c3nnc4n3[C@@H](C)C[C@H]4C)n1)C2=O [Example 212, 2-{6-[(5S,7R)-5,7-dimethyl-6,7-dihydro-5H-pyrrolo[2,1-c] [1,2,4]triazol-3-yl]pyridin-2-yl}-4-[(methyl-amino)methyl]-6-[methyl (propan-2-yl)amino]-2,3-dihydro-1H-pyrrolo[3,4-c] pyridin-1-one]					159	0.32
CCCn1cnnc1-c1cccc(N2Cc3c(cc(N(C)C)nc3CNC)C2=O)n1 [Example 300, 6-(dimethylamino)-4-[(methylamino)methyl]-2-[6-(4-propyl-4H-1,2,4-triazol-3-yl)pyridin-2-yl]-2,3-dihydro-1H-pyrrolo[3,4-c]pyridin-1-one]	1.93	6.26	14	23	94	

Continued by falling IC50 [3], values first:

IC50 [1] [nM]	IC50 [2] [nM]	PRKD2 IC50/HPK1 Ki [1]	RSK3 IC50/HPK1 Ki [2]	IC50 [3] [nM]	Ki [4] [nM]	SMILES
				94	1.02	CCCn1cnnc1-c1cccc(N2Cc3c(cc(N(C)C)nc3C(C)(C)N)C2=O)n1 [Example 131, 4-(2-aminopropan-2-yl)-6-(dimethyl-amino)-2-[6-(4-propyl-4H-1,2,4-triazol-3-yl)pyridin-2-yl]-2,3-dihydro-1H-pyrrolo[3,4-c]pyridin-1-one]
				90	0.11	CCCn1cnnc1-c1cccc(N2Cc3c(cc(N4CCC[C@H]4C)nc3[C@H](N)CC)C2=O)n1 [Example 144, 4-[(1R)-1-aminopropyl]-6-[(2R)-2-methylpyrroli-din-1-yl]-2-[6-(4-propyl-4H-1,2,4-triazol-3-yl)pyridin-2-yl]-2,3-dihydro-1H-pyrrolo[3,4-c]pyridin-1-one]
				85	0.6	CNCc1nc(N(C)C)cc2c1CN(c1cccc(-c3nnc4n3[C@@H](C)CC4)n1)C2=O [Example 208, 6-(dimethyl-amino)-4-[(methylamino)methyl]-2-{6-[(5S)-5-methyl-6,7-dihydro-5H-pyrrolo[2,1-c] [1,2,4]triazol-3-yl]pyridin-2-yl}-2,3-dihydro-1H-pyrrolo[3,4-c] pyridin-1-one]
				78	0.12	CC[C@H]1CCc2nnc(-c3cccc(N4Cc5c(cc(N(C)C)nc5CNC)C4=O)n3)n21 [Example 206, 6-(dimethyl-amino)-2-{6-[(5S)-5-ethyl-6,7-dihydro-5H-pyrrolo[2,1-c] [1,2,4]triazol-3-yl]pyridin-2-yl}-4-[(methyl-amino)methyl]-2,3-dihydro-1H-pyrrolo[3,4-c] pyridin-1-one]
				78	< 0.05	CNCc1nc(N(C)C(C)C)cc2c1CN(c1cccc(-c3nnc4n3[C@@H](C)C[C@@H]4C)n1)C2=O [Example 211, 2-{6-[(5S,7S)-5,7-dimethyl-6,7-dihydro-5H-pyrrolo[2,1-c] [1,2,4]triazol-3-yl]pyridin-2-yl}-4-[(methyl-amino)methyl]-6-[methyl (propan-2-yl)amino]-2,3-dihydro-1H-pyrrolo[3,4-c] pyridin-1-one]
				53	< 0.07	CC[C@@H](N)c1nc(N2CCC[C@H]2C)cc2c1CN(c1cccc(-c3nncn3CC)n1)C2=O [Example 140, 4-[(1R)-1-aminopropyl]-2-[6-(4-ethyl-4H-1,2,4-triazol-3-yl)pyridin-2-yl]-6-[(2R)-2-methylpyrroli-din-1-yl]-2,3-dihydro-1H-pyrrolo[3,4-c]pyridin-1-one]
				52	< 0.05	CNCc1nc(N(C)C(C)C)cc2c1CN(c1cccc(-c3nnc4n3[C@@H](CF)CC4)n1)C2=O [Example 205, 2-{6-[(5R)-5-(fluoromethyl)-6,7-dihydro-5H-pyrrolo[2,1-c][1,2,4]triazol-3-yl]pyridin-2-yl}-4-[(methyl-amino)methyl]-6-[methyl (propan-2-yl)amino]-2,3-dihydro-1H-pyrrolo[3,4-c] pyridin-1-one]
				47	< 0.05	CNCc1nc(N(C)C(C)C)cc2c1CN(c1cccc(-c3nnc4n3[C@@H](C)CC4)n1)C2=O [Example 210, 4-[(methyl-amino)methyl]-2-{6-[(5S)-5-methyl-6,7-dihydro-5H-pyrrolo[2,1-c] [1,2,4]triazol-3-yl]pyridin-2-yl}-6-[methyl (propan-2-yl)amino]-2,3-dihydro-1H-pyrrolo[3,4-c] pyridin-1-one]
51.2	15.5	>1020	>320	39	< 0.05	CCn1cnnc1-c1cccc(N2Cc3c(cc(N4CCC[C@H]4C)nc3C(C)(C)N)C2=O)n1 [Example 100, 4-(2-aminopropan-2-yl)-2-[6-(4-ethyl-4H-1,2,4-triazol-3-yl)pyridin-2-yl]-6-[(2R)-2-methylpyrrolidin-1-yl]-2,3-dihydro-1H-pyrrolo[3,4-c]pyridin-1-one]
217	25.8	>4304	>520	36	< 0.05	CC[C@H]1CCc2nnc(-c3cccc(N4Cc5c(cc(N(C)C(C)C)nc5[C@@H](C)N)C4=O)n3)n21 [Example 4, 4-[(1R)-1-aminoethyl]-2-{6-[(5S)-5-ethyl-6,7-dihydro-5H-pyrrolo[2,1-c][1,2,4]triazol-3-yl]pyridin-2-yl}-6-[methyl(propan-2-yl)amino]-2,3-dihydro-1H-pyrrolo[3,4-c]pyridin-1-one]
6.54	3.33	>130	>66	34	< 0.05	CC[C@H]1CCc2nnc(-c3cccc(N4Cc5c(cc(N6CCC[C@H]6C)nc5[C@H](C)N)C4=O)n3)n21 [Example 3, 4-[(1S)-1-aminoethyl]-2-{6-[(5S)-5-ethyl-6,7-dihydro-5H-pyrrolo[2,1-c][1,2,4]triazol-3-yl]pyridin-2-yl}-6-[(2R)-2-methylpyrrolidin-1-yl]-2,3-dihydro-1H-pyrrolo[3,4-c]pyridin-1-one]
116	21.3	>2320	>420	30	< 0.05	CC[C@H]1CCc2nnc(-c3cccc(N4Cc5c(cc(N6CCC[C@H]6C)nc5[C@@H](C)N)C4=O)n3)n21 [Example 2, 4-[(1R)-1-aminoethyl]-2-{6-[(5S)-5-ethyl-6,7-dihydro-5H-pyrrolo[2,1-c][1,2,4]triazol-3-yl]pyridin-2-yl}-6-[(2R)-2-methylpyrrolidin-1-yl]-2,3-dihydro-1H-pyrrolo[3,4-c]pyridin-1-one]
